Assay results reported in ChEMBL document CHEMBL4673326, “Ligand-based optimization and biological evaluation of N-(2,2,2-trichloro-1-(3-phenylthioureido)ethyl)acetamide derivatives as potent intrinsically disordered protein c-Myc inhibitors” (Bioorg Med Chem Lett, 2021).
Calls of active or inactive are those of the source. The calls are words filed in the database; no cut-off is given here.

tested on: HL-60; experiment: Cell cycle arrest in human HL-60 cells assessed as accumulation at S-phase at 3.125 to 6.25 uM measured after 24 hrs by propidium iodide staining based flow cytometry; type: functional; settings: dose 3.125-6.25 µM

| SMILES | Activity |
| --- | --- |
| O=C(NC(NC(=S)Nc1ccc(I)cc1)C(Cl)(Cl)Cl)c1cccc(I)c1 (stereo not drawn) | Active |

tested on: HL-60; experiment: Antiproliferative activity against human HL-60 cells assessed as inhibition of cell proliferation incubated for 72 hrs; type: functional, cell-based; settings: HL-60, 72 h

| SMILES | EC50 [µM] |
| --- | --- |
| CCOC(=O)NC(NC(=S)Nc1c(Cl)cc(Cl)cc1Cl)C(Cl)(Cl)Cl (stereo not drawn) | 42.8 |
| CCOC(=O)NC(NC(=S)Nc1ccc(C)cc1)C(Cl)(Cl)Cl (stereo not drawn) | > 50 |
| CC(=O)Nc1ccc(NC(=S)NC(NC(=O)c2ccccc2C)C(Cl)(Cl)Cl)cc1 (stereo not drawn) | > 50 |
| COc1ccc(NC(=S)NC(NC(=O)Cc2ccccc2)C(Cl)(Cl)Cl)cc1 (stereo not drawn) | > 50 |
| O=C(Cc1ccccc1)NC(NC(=S)Nc1ccc(Cl)c(Cl)c1)C(Cl)(Cl)Cl (stereo not drawn) | 32.5 |
| CC(=O)NC(NC(=S)Nc1c(Cl)cc(Cl)cc1Cl)C(Cl)(Cl)Cl (stereo not drawn) | 24 |
| Cc1cccc(NC(=S)NC(NC(=O)CF)C(Cl)(Cl)Cl)c1 (stereo not drawn) | > 100 |
| NS(=O)(=O)c1ccc(NC(=S)NC(NC(=O)c2ccccc2)C(Cl)(Cl)Cl)cc1 (stereo not drawn) | > 50 |
| COc1ccccc1NC(=S)NC(NC=O)C(Cl)(Cl)Cl (stereo not drawn) | > 100 |
| O=C(NCNC(=S)Nc1ccc(Cl)cc1)c1ccccc1 | > 50 |
| Cc1cccc(NC(=S)NC(NC(=O)Cc2ccccc2)C(Cl)(Cl)Cl)c1 (stereo not drawn) | > 100 |
| Cc1ccc(NC(=S)NC(NC(=O)OCc2ccccc2)C(Cl)(Cl)Cl)cc1 (stereo not drawn) | 24.9 |
| CCCCCCCCC(=O)NC(NC(=S)Nc1ccccc1C)C(Cl)(Cl)Cl (stereo not drawn) | > 100 |
| CC(C)C(=O)NC(NC(=S)Nc1ccc(Cl)cc1)C(Cl)(Cl)Cl (stereo not drawn) | > 100 |
| CCCCCC(=O)NC(NC(=S)Nc1ccc(C)cc1)C(Cl)(Cl)Cl (stereo not drawn) | > 50 |
| Cc1ccccc1N=C(S)NC(NC(=O)CF)C(Cl)(Cl)Cl (stereo not drawn) | > 100 |
| Cc1ccc(NC(=S)NC(NC(=O)Cc2ccccc2)C(Cl)(Cl)Cl)cc1 (stereo not drawn) | > 50 |
| Cc1ccc(NC(S)=NC(NC(=O)N(C)C)C(Cl)(Cl)Cl)cc1 (stereo not drawn) | > 50 |
| COc1ccc(NC(=S)NC(NC(=O)OCc2ccccc2)C(Cl)(Cl)Cl)cc1 (stereo not drawn) | > 50 |
| COC(=O)c1ccccc1NC(=S)NC(NC(=O)c1ccc(C)cc1)C(Cl)(Cl)Cl (stereo not drawn) | 23.1 |
| O=C(CF)NC(NC(=S)Nc1ccccc1Cl)C(Cl)(Cl)Cl (stereo not drawn) | > 50 |
| Cc1ccc(NC(=S)NC(NC(=O)CC(C)C)C(Cl)(Cl)Cl)cc1 (stereo not drawn) | 33.7 |
| O=C(CF)NC(NC(=S)Nc1ccc(Cl)cc1)C(Cl)(Cl)Cl (stereo not drawn) | 24.8 |

The next lines start with the values.

| EC50 [µM] | SMILES |
| --- | --- |
| 8.2 | O=C(NC(NC(=S)Nc1ccc(Cl)c(Cl)c1)C(Cl)(Cl)Cl)OCc1ccccc1 (stereo not drawn) |
| 5.9 | O=C(NC(NC(=S)Nc1ccc(Cl)cc1)C(Cl)(Cl)Cl)c1ccccc1Cl (stereo not drawn) |
| 4.2 | Cc1ccc(NC(=S)NC(NC(=O)c2ccccc2)C(Cl)(Cl)Cl)cc1 (stereo not drawn) |
| 4.5 | Cc1ccccc1C(=O)NC(NC(=S)Nc1ccc(Cl)c(Cl)c1)C(Cl)(Cl)Cl (stereo not drawn) |
| 11.7 | O=C(NC(NC(=S)Nc1ccc(F)cc1)C(Cl)(Cl)Cl)OCc1ccccc1 (stereo not drawn) |
| 5 | O=C(NC(NC(=S)Nc1ccc(Cl)cc1)C(Cl)(Cl)Cl)c1ccccc1 (stereo not drawn) |
| 8.3 | O=C(NC(NC(=S)Nc1cccc(Cl)c1)C(Cl)(Cl)Cl)OCc1ccccc1 (stereo not drawn) |
| 14.3 | COC(=O)c1ccc(NC(=S)NC(NC(=O)c2ccccc2C)C(Cl)(Cl)Cl)cc1 (stereo not drawn) |
| 7.3 | COC(=O)c1ccc(NC(=S)NC(NC(=O)c2cccc3ccccc23)C(Cl)(Cl)Cl)cc1 (stereo not drawn) |
| 16.7 | O=C(NC(NC(=S)Nc1ccccc1)C(Cl)(Cl)Cl)OCc1ccccc1 (stereo not drawn) |
| 17.2 | Cc1ccc(NC(=S)NC(NC(=O)c2ccc(Br)cc2)C(Cl)(Cl)Cl)cc1 (stereo not drawn) |
| 10.8 | Cc1ccccc1C(=O)NC(NC(=S)Nc1ccccc1)C(Cl)(Cl)Cl (stereo not drawn) |
| 9.1 | O=C(NC(NC(=S)Nc1ccc(Cl)cc1Cl)C(Cl)(Cl)Cl)c1ccccc1 (stereo not drawn) |
| 8.1 | Cc1ccc(N=C(S)NC(NC(=O)c2ccccc2)C(Cl)(Cl)Cl)c(C)c1 (stereo not drawn) |
| 10.6 | O=C(NC(NC(=S)Nc1ccc(Cl)cc1Cl)C(Cl)(Cl)Cl)OCc1ccccc1 (stereo not drawn) |
| 6.1 | O=C(NC(NC(=S)Nc1ccc(Br)cc1)C(Cl)(Cl)Cl)OCc1ccccc1 (stereo not drawn) |
| 13.8 | Cc1ccccc1C(=O)NC(NC(=S)Nc1ccccc1I)C(Cl)(Cl)Cl (stereo not drawn) |
| 3.3 | O=C(NC(NC(=S)Nc1ccc(I)cc1)C(Cl)(Cl)Cl)c1cccc(I)c1 (stereo not drawn) |
| 8.7 | Cc1ccc(C(=O)NC(NC(=S)Nc2cc(C(F)(F)F)ccc2Cl)C(Cl)(Cl)Cl)cc1 (stereo not drawn) |
| 10.6 | Cc1cccc(NC(=S)NC(NC(=O)c2ccccc2)C(Cl)(Cl)Cl)c1 (stereo not drawn) |
| 3.4 | O=C(/C=C/c1ccccc1)NC(NC(=S)Nc1cccc2ccccc12)C(Cl)(Cl)Cl (stereo not drawn) |
| 22.9 | Cc1cccc(NC(=S)NC(NC(=O)c2ccccc2C)C(Cl)(Cl)Cl)c1 (stereo not drawn) |
| 6.9 | O=C(NC(NC(=S)Nc1cccc2ccccc12)C(Cl)(Cl)Cl)OCc1ccccc1 (stereo not drawn) |
| 6.1 | O=C(NC(NC(=S)Nc1ccc(Cl)cc1)C(Cl)(Cl)Cl)OCc1ccccc1 (stereo not drawn) |
| 10.2 | COC(=O)c1ccc(NC(=S)NC(NC(=O)OCc2ccccc2)C(Cl)(Cl)Cl)cc1 (stereo not drawn) |
| 9.9 | CCOC(=O)NC(NC(=S)Nc1ccc(I)cc1)C(Cl)(Cl)Cl (stereo not drawn) |

tested on: not listed separately; experiment: Antiproliferative activity against human Mutu-1 assessed as reduction in cell viability measured after 2 hrs; type: functional; settings: Mutu-1, 2 h

| SMILES | EC50 [µM] |
| --- | --- |
| CCOc1ccc2nc3cc(/N=N/c4ccc(N)nc4N)ccc3c(N)c2c1 | 0.5 |

tested on: not listed separately; experiment: Antiproliferative activity against rat TGR-1 harboring c-Myc assessed as reduction in cell viability measured on day 3 by MTT assay; type: functional; settings: TGR1, 72 h

| SMILES | EC50 [µM] |
| --- | --- |
| CCOC(=O)c1cnn(-c2ccccc2)c1NC(=O)c1cc2nc(-c3ccco3)cc(C(F)(F)Cl)n2n1 | 0.25 |

target: Myc proto-oncogene protein (Homo sapiens) (UniProt P01106); experiment: Induction of c-Myc degradation in human HL-60 cells assesses as decrease in c-Myc protein level measured after 24 hrs by Western blot analysis; type: cell-based; settings: dose 3.125-25 µM
Sequence (P01106 whole entry): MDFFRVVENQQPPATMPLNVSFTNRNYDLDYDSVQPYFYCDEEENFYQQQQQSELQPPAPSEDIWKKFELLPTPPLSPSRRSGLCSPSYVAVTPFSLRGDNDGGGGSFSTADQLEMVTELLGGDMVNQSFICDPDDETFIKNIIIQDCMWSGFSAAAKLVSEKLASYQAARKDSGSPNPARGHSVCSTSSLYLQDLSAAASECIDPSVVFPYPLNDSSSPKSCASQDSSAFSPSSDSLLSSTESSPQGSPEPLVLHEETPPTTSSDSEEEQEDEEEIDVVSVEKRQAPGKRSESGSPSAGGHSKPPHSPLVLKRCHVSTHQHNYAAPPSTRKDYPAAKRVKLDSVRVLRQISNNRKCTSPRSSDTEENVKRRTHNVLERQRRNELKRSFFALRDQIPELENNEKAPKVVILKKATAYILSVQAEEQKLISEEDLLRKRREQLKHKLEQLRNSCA

| SMILES | Activity |
| --- | --- |
| O=C(NC(NC(=S)Nc1ccc(I)cc1)C(Cl)(Cl)Cl)c1cccc(I)c1 (stereo not drawn) | Dose-dependent effect |

tested on: Daudi; experiment: Antiproliferative activity against human Daudi assessed as reduction in cell viability measured after 2 hrs; type: functional, cell-based; settings: not given

| SMILES | EC50 [µM] |
| --- | --- |
| CCOc1ccc2nc3cc(/N=N/c4ccc(N)nc4N)ccc3c(N)c2c1 | 0.5 |

tested on: ST486; experiment: Antiproliferative activity against human ST486 assessed as reduction in cell viability measured after 2 hrs; type: functional, cell-based; settings: ST486, 2 h

| SMILES | EC50 [µM] |
| --- | --- |
| CCOc1ccc2nc3cc(/N=N/c4ccc(N)nc4N)ccc3c(N)c2c1 | 0.5 |

tested on: HL-60; experiment: Induction of apoptosis in human HL-60 cells at 1 to 20 uM measured after 24 hrs by FITC-Annexin-v/propidium iodide staining based flow cytometry; type: functional, cell-based; settings: dose 1-20 µM

| SMILES | Activity |
| --- | --- |
| O=C(NC(NC(=S)Nc1ccc(I)cc1)C(Cl)(Cl)Cl)c1cccc(I)c1 (stereo not drawn) | Active |

target: c-Myc/c-Max (Homo sapiens) (UniProt P01106+P61244); experiment: (§1) Inhibition of Nanoluc-tagged c-Myc/Halo-tagged MAX (unknown origin) interaction expressed in HEK293T cells assessed as degradation measured after 4 to 6 hrs by NanoBRET assay; type: cell-based; settings: time 4-6 hrs
Sequence (P01106 whole entry): as above
Sequence (P61244 2-160 partner limits assumed): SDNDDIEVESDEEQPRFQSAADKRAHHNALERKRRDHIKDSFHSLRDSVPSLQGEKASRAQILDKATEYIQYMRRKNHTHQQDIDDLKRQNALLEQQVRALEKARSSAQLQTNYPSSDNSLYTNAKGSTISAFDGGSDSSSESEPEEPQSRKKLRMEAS

| SMILES | inhibition |
| --- | --- |
| O=C(NC(NC(=S)Nc1ccc(I)cc1)C(Cl)(Cl)Cl)c1cccc(I)c1 (stereo not drawn) | Dose-dependent effect |

target: c-Myc/c-Max (Homo sapiens, UniProt P01106); experiment: as §1; type: cell-based; settings: not given
Sequence (P01106 whole entry): as the sequence (P01106 whole entry) above
Sequence (P61244 whole entry, further chain): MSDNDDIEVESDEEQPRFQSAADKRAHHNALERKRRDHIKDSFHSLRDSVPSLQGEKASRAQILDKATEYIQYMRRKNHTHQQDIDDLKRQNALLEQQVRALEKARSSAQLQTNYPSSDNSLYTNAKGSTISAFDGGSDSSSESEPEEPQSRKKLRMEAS

| SMILES | EC50 [µM] |
| --- | --- |
| O=C(NC(NC(=S)Nc1ccc(I)cc1)C(Cl)(Cl)Cl)c1cccc(I)c1 (stereo not drawn) | 29.1 |
